Measurements taken from article PMC8170916, “Sublingual AKBA Exerts Antidepressant Effects in the Aβ-Treated Mouse Model” (Biomolecules, 2021).

Experiments:
[1] = Plasmatic AKBA levels after sublingual or intranasal administration; type: in vivo, mice; settings: 5 mg/kg
Method: AKBA (Cayman Chemical Company) was dissolved in sunflower oil, this vehicle was chosen in order to maintain a better tasting and higher density of the final solution thus reducing reflux through the digestive tract. […] Ten µL of the solution (or vehicle alone) was sublingually administered to mice. For intranasal administration, requiring more hydrophilic solution, AKBA was dissolved in DMSO and saline (1:3, v/v), and given to mice at the same final dose of 5 mg/kg. […]
[…] The pellets were then removed, and the remaining supernatants were dried on sodium sulphate anhydrous, filtered with 0.20 µm PTFE syringe filters and used for chemical analysis. The quantification of 3-O-acetyl-11-keto-β-boswellic acid (AKBA) was performed by using GC-MS/IT equipment composed of a gas chromatograph GC-7890B (Agilent Technologies, Santa Clara, CA, USA) coupled with an ion trap mass spectrometer IT-240 (Agilent Technologies).
The gas chromatograph was equipped with a VF-5 ms (Agilent J&W GC Columns) capillary column, 30 m × 0.25 mm i.d. × 0.25 µm. […]
The MS electron multiplier voltage was set at 1450 V, and an ionization time of 65,000 µs was used, running in the electron impact (EI) mode. […] These characteristic fragments were selected as a mass target to develop the MS acquisition method operating in single ion scan mode (SIS) to improve the LOD and LOQ for AKBA quantification. […]

GFAP = test: Western blotting quantification of GFAP in PFC and HIPP; type: in vivo; settings: mice 7 days after icv Aβ 4 µM, sublingual AKBA 5 mg/kg 30 min earlier
Method: (§1) All behavioral experiments were conducted at 5 or 30 min after sublingual administrations of AKBA or vehicle in either SHAM or Aβ-treated mice. Based upon behavioral outcomes observed, neurochemical and biochemical quantifications were performed 30 min after AKBA or vehicle administration in either SHAM or Aβ-treated mice.
(§2) Anesthetized animals were sacrificed by cervical dislocation. Brains were immediately removed and kept on ice for dissection of PFC and HIPP, according to the atlas of Paxinos and Franklin. Tissues were frozen and stored at −80 °C until analyses were carried out. Samples (PFC and HIPP) were homogenized (1:10 w/v) at 4 °C using a PBS buffer containing a 1:100 protease and phosphatase inhibitor cocktail (HALT inhibitors, Thermo Fisher Scientific, Cleveland, OH, USA) for biochemical analyses or perchloric acid 0.1 M for neurochemical analyses. Homogenates were centrifuged at 13,000× g at 4 °C for 20 min, and supernatants were used for further determinations.
(§3) The total amount of proteins was measured in homogenates by using Pierce BCA Assay (Thermo Fisher Scientific, Cleveland, OH, USA). Forty µg of the total lysate protein were separated by SDS-PAGE precast gels (Bio-Rad Laboratories Inc., Segrate (MI), Italy), transferred onto nitrocellulose membranes (Bio-Rad Laboratories Inc, Segrate (MI), Italy) and then blocked for 1 h in blocking buffer (SigmaAldrich, Milan, Italy). Rabbit polyclonal antibody against GFAP (Dako Products, USA; 1:2000), rabbit monoclonal antibody against CD11b (Abcam, Cambridge, MA, USA; ab133357, 1:1000) and mouse monoclonal antibody against NF-kB p65 (Santa Cruz Biotechnology, Dallas, Texas, USA; 1:2000) were used to incubate the membranes overnight at 4 °C. After HRP-conjugated specific antibody incubation, ECL reagent (Bio-Rad Laboratories Inc., Segrate (MI), Italy) was added to the immune complex and chemiluminescence was detected by ChemiDoc MP system (Bio-Rad Laboratories Inc., Segrate (MI), Italy). Optical densities of the bands were measured using ImageJ software (http://rsb.info.nih.gov/ij/ accessed on 15 March 2021) and normalized against bands relative to β-actin (1:5000, Abcam, Cambridge, UK).

CD11b = test: Western blotting quantification of CD11b in PFC and HIPP; type: in vivo; settings: mice 7 days after icv Aβ 4 µM, sublingual AKBA 5 mg/kg 30 min earlier
Method: as §1, §2, §3

Plasmatic AUCs, sublingual vs intranasal [1]: higher after sublingual administration
SMILES: CC(=O)O[C@@H]1CC[C@@]2(C)[C@@H](CC[C@]3(C)[C@@H]2C(=O)C=C2[C@@H]4[C@@H](C)[C@H](C)CC[C@]4(C)CC[C@]23C)[C@@]1(C)C(=O)O [AKBA, 3-O-acetyl-11-keto-β-boswellic acid]
Plasmatic AKBA levels ([1]; sublingual vs intranasal, 5, 15 and 30 min after administration): significantly higher after sublingual administration compared to intranasal
GFAP levels in the HIPP (optical density normalized to actin) (GFAP; HIPP): restored those levels back to control
GFAP levels in the PFC (optical density normalized to actin) (GFAP; PFC): prevented such an increase
CD11b levels in the HIPP (optical density normalized to actin) (CD11b; HIPP): not able to modify such an outcome
CD11b content in the PFC (optical density normalized to actin) (CD11b; PFC): no differences were found among experimental groups
